For experiment [1], the target named is SMO V386A (Homo sapiens, UniProt Q99835, V386A). Nature of the experiment: Hedgehog signaling assay. Format: cell-based. Conditions: 100 nM vismodegib and SHH-N ligand.
Experiment [2] addresses SMO H231R (Homo sapiens, UniProt Q99835, H231R). Kind of experiment: Hedgehog signaling assay. Format: cell-based. Particulars: 100 nM vismodegib and SHH-N ligand.
Experiment [3] addresses SMO D473G (Homo sapiens, UniProt Q99835, D473G). Kind of experiment: Hedgehog signaling assay. Format: cell-based. Conditions: 100 nM vismodegib and SHH-N ligand.
Experiment [4] concerns the target SMO W281C (Homo sapiens, UniProt Q99835, W281C). Kind of experiment: Hedgehog signaling assay. Particulars: 100 nM vismodegib and SHH-N ligand. Format: cell-based.
Experiment [5] concerns the target SMO Q477E (Homo sapiens, UniProt Q99835, Q477E). Nature of the experiment: Hedgehog signaling assay. Conditions: 100 nM vismodegib and SHH-N ligand. Format: cell-based.
The target of experiment [6] is SMO F460L (Homo sapiens, UniProt Q99835, F460L). Nature of the experiment: Hedgehog signaling assay. Format: cell-based. Conditions: SHH-N CM, 100 nM vismodegib.
SMO F460L, sequence (Q99835 28-787 F460L): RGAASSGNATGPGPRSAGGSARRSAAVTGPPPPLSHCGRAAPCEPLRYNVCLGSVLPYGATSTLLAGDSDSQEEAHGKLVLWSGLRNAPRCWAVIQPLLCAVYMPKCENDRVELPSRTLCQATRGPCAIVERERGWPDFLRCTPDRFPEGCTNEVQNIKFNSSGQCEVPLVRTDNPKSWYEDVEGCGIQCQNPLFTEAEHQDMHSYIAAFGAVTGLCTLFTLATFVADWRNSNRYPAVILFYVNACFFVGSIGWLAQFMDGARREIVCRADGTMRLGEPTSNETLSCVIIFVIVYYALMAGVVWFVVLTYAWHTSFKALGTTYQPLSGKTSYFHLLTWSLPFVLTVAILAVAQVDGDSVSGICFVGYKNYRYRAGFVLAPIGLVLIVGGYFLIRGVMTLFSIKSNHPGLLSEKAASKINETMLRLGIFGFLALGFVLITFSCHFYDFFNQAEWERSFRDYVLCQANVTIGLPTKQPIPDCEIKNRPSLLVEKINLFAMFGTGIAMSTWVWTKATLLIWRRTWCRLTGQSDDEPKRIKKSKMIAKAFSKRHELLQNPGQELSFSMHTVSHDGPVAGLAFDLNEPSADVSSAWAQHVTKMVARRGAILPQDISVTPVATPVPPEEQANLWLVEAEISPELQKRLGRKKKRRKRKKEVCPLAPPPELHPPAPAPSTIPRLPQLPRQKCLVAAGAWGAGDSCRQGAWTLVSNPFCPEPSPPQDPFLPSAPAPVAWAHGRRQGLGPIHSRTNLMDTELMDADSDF
For experiment [7], the target named is SMO V321M (Homo sapiens, UniProt Q99835, V321M). Kind of experiment: Hedgehog signaling assay. Format: cell-based. Particulars: SHH-N CM, 100 nM vismodegib.
SMO V321M, sequence (Q99835 28-787 V321M): as the sequence (Q99835 28-787 F460L) above, with V294M, L433F counted along it
Experiment [8] concerns the target SMO L412F (Homo sapiens, UniProt Q99835, L412F). Nature of the experiment: Hedgehog signaling assay. Format: cell-based. Particulars: SHH-N CM, 100 nM vismodegib.
The target of experiment [9] is SMO Q635E (Homo sapiens, UniProt Q99835, Q635E). Conditions: SHH-N CM, 10, 20 or 80 nM vismodegib.
SMO Q635E, sequence (Q99835 28-787 Q635E): as the sequence (Q99835 28-787 F460L) above, with L433F, Q608E counted along it
The subject of experiment [10] is advanced and metastatic BCCs. Conditions: 2012, cited from earlier work.
For experiment [11], the system named is syndromic BCCs in patients with Basal Cell Nevus Syndrome. Conditions: Gorlin, inherited PTCH1 loss; ref Tang et al., 2012; cited from earlier work.
For experiment [12], the system named is SMO-LBP and SMO-CA variants. Nature of the experiment: HH pathway activity. Conditions: […] nM vismodegib (4-fold greater than IC50), SHH-N CM.

SMO D473G, sequence (Q99835 28-787 D473G): as the sequence (Q99835 28-787 F460L) above, with L433F, D446G counted along it
SMO L412F, sequence (Q99835 28-787 L412F): as the sequence (Q99835 28-787 F460L) above, with L385F, L433F counted along it
SMO V386A, sequence (Q99835 28-787 V386A): as the sequence (Q99835 28-787 F460L) above, with V359A, L433F counted along it
SMO W281C, sequence (Q99835 28-787 W281C): as the sequence (Q99835 28-787 F460L) above, with W254C, L433F counted along it
SMO Q477E, sequence (Q99835 28-787 Q477E): as the sequence (Q99835 28-787 F460L) above, with L433F, Q450E counted along it
SMO H231R, sequence (Q99835 28-787 H231R): as the sequence (Q99835 28-787 F460L) above, with H204R, L433F counted along it

In the case of `CS(=O)(=O)c1ccc(C(=O)Nc2ccc(Cl)c(-c3ccccn3)c2)c(Cl)c1` [vismodegib], the “HH activity (Gli1 mRNA) in the presence of drug” value is “response similar to SMO WT” in experiment [1]; “retained high levels of HH activity” in [2]; “retained high levels of HH activity” in [3]; “retained high levels of HH activity” in [4]; “retained high levels of HH activity” in [5]. Moreover, the “HH pathway activity, responsiveness to drug” value in experiment [6], in experiment [7] and in [8] was “partially or completely unresponsive” throughout. In addition, the “HH pathway activity, resistance at low drug concentrations” value in experiment [9] was “resistance at low but not high vismodegib concentrations”. In addition, in [10] (additional to non-responders, ref Chang and Oro), the “patients developing resistance during the first year” value is reported as 20%. In addition, in experiment [10] (advanced and metastatic BCCs, ref Axelson et al., 2013, Sekulic et al.), the overall response rate is recorded as 48%. In experiment [11], the clinical response result was “respond to vismodegib and have a low rate of acquired resistance”. In experiment [12], the “HH pathway activity (Gli1 mRNA) in the presence of SMO variants” value is “partial or complete resistance”.

The record behind these values is paper PMC4357167 (Cancer cell, 2015).
